Test results reported in patent US10765114B2, “4-amino-6-(pyridyl and 2-substitutedphenyl)-picolinates and 6-amino-2-(pyridyl and 2-substitutedphenyl)-pyrimidine-4-carboxylates and their use as herbicides” (Dow AgroSciences LLC, priority 2013, dated 2020).

What was measured:
Test in all cases: Post-Emergent Test III (Wheat and Barley)
[1] = system: BRSSS; type: in vivo; conditions: for Visual Growth Reduction (%) 21 Days After Application, BRSSS: BRSSS oil seed rape (Brassica napus), post-emergent
Outline: (§1)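 Test compounds, formulated in acetone/DMSO with aqueous crop oil concentrate and surfactant, were applied over the canopy at 187 L/ha at several serially halved rates. Subirrigated plants were scored for percent injury at 21 days, with GR10–GR90 derived by probit analysis.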

[2] = system: SETVI (green foxtail); type: in vivo, Setaria viridis; conditions: for pest or weed control at 35 g/ha / pest or weed control at 70 g/ha / pest or weed control at 140 g/ha: Setaria viridis, post-emergence, 504 h, postemergence, read-out: Visual Growth Reduction (%) 21 Days After Application, SETVI; for pest or weed control at 35 g/ha: 35 g ai/ha; for pest or weed control at 70 g/ha: 70 g ai/ha; for GR50, SETVI: effective dose for growth reduction of 50 percent; for GR50, SETVI / GR80, SETVI: probit analysis; for GR80, SETVI: effective dose for growth reduction of 80 percent; for pest or weed control at 140 g/ha: 140 g ai/ha
Experimental: Seeds of the desired test plant species were planted in Sun Gro MetroMix® 306 planting mixture, which typically has a pH of 6.0 to 6.8 and an organic matter content of about 30 percent, in plastic pots with a surface area of 103.2 square centimeters (cm^2). When required to ensure good germination and healthy plants, a fungicide treatment and/or other chemical or physical treatment was applied. The plants were grown for 7-36 days in a greenhouse with an approximate 14 h photoperiod which was maintained at about 18° C. during the day and 17° C. during the night. Nutrients and water were added on a regular basis and supplemental lighting was provided with overhead metal halide 1000-Watt lamps as necessary. The plants were employed for testing when they reached the second or third true leaf stage.
A weighed amount, determined by the highest rate to be tested, of each test compound was placed in a 25 mL glass vial and was dissolved in 4 mL of a 97:3 v/v mixture of acetone and DMSO to obtain concentrated stock solutions. […] The concentrated stock solutions obtained were diluted with 20 mL of an aqueous mixture containing acetone, water, isopropyl alcohol, DMSO, Agri-Dex crop oil concentrate, and X-77 surfactant in a 48:39:10:1.5:1.5:0.02 v/v ratio to obtain spray solutions containing the highest application rates. Additional application rates were obtained by serial dilution of 12 mL of the high rate solution into a solution containing 2 mL of 97:3 v/v mixture of acetone and DMSO and 10 mL of an aqueous mixture containing acetone, water, isopropyl alcohol, DMSO, Agri-Dex crop oil concentrate, and X-77 surfactant in a 48:39:10:1.5:1.5:0.02 v/v ratio to obtain ½×, ¼×, ⅛× and 1/16× rates of the high rate. Compound requirements are based upon a 12 mL application volume at a rate of 187 liters per hectare (L/ha). Formulated compounds were applied to the plant material with an overhead Mandel track sprayer equipped with 8002E nozzles calibrated to deliver 187 L/ha over an application area of 0.503 square meters at a spray height of 18 inches (43 cm) above the average plant canopy height. Control plants were sprayed in the same manner with the solvent blank.
The treated plants and control plants were placed in a greenhouse as described above and watered by subirrigation to prevent wash-off of the test compounds. After 21 dAYS, the condition of the test plants as compared with that of the untreated plants was determined visually and scored on a scale of 0 to 100 percent where 0 corresponds to no injury and 100 corresponds to complete kill and presented as indicated in Table A.
By applying the well-accepted probit analysis as described by J. Berkson in Journal of the American Statistical Society, 48, 565 (1953) and by D. Finney in “Probit Analysis” Cambridge University Press (1952), herbicidal injury of a specific compound at various rates can be used to calculate GR10, GR20, GR50, GR80 and GR90 values, which are defined as growth reduction factors that correspond to the effective dose of herbicide required to provide plant growth reduction (GR) of 10 percent, 20 percent, 50 percent, 80 percent and 90 percent, respectively. Probit analysis was applied to data collected from multiple dose rates of individual compounds utilizing the procedures explained in the following examples. The analysis of those dose rates is captured in the following tables.

[3] = system: LOLSS; type: in vivo; conditions: for GR50, LOLSS: effective dose for growth reduction of 50 percent; for GR50, LOLSS / GR80, LOLSS: probit analysis; for GR80, LOLSS: effective dose for growth reduction of 80 percent; for pest or weed control at 35 g/ha / pest or weed control at 70 g/ha / pest or weed control at 140 g/ha: post-emergence, 504 h, postemergence, read-out: Visual Growth Reduction (%) 21 Days After Application, LOLSS; for pest or weed control at 35 g/ha: 35 g ai/ha; for pest or weed control at 70 g/ha: 70 g ai/ha; for pest or weed control at 140 g/ha: 140 g ai/ha
Outline: as §1

| SMILES | Visual Growth Reduction (%) 21 Days After Application, BRSSS ([1]; 17.5 g ai/ha) | Visual Growth Reduction (%) 21 Days After Application, BRSSS ([1]; 35 g ai/ha) | Visual Growth Reduction (%) 21 Days After Application, BRSSS ([1]; 70 g ai/ha) | GR50, BRSSS ([1]; BRSSS, growth reduction of 50%, probit analysis, 21 days) | GR80, BRSSS ([1]; BRSSS, growth reduction of 80%, probit analysis, 21 days) | GR90, BRSSS ([1]; BRSSS, growth reduction of 90%, probit analysis, 21 days) | pest or weed control at 35 g/ha [2] | pest or weed control at 70 g/ha [2] | GR50, SETVI [2] | GR80, SETVI [2] | GR50, LOLSS [3] | GR80, LOLSS [3] | pest or weed control at 35 g/ha [3] | pest or weed control at 70 g/ha [3] | pest or weed control at 140 g/ha [2] | pest or weed control at 140 g/ha [3] |
| --- | --- | --- | --- | --- | --- | --- | --- | --- | --- | --- | --- | --- | --- | --- | --- | --- |
| Nc1cc(-c2ccc(Cl)c(Cl)c2Cl)nc(C(=O)O)c1Cl [Compound 93] | A (95-100) | A (95-100) | A (95-100) | 0 g ai/ha | 3 g ai/ha | 11 g ai/ha | – | – | – | – | – | – | – | – | – | – |
| COC(=O)c1nc(-c2ccc(C(F)(F)F)nc2)c(Cl)c(N)c1Cl [Compound 83] | – | – | – | – | – | – | 0 to 29% | 60 to 74% | 63 g ai/ha | 139 g ai/ha | 59 g ai/ha | 99 g ai/ha | 0 to 29% | 60 to 74% | – | – |
| COC(=O)c1nc(-c2ccc(C3CC3)nc2)c(F)c(N)c1Cl [Compound 49] | – | – | – | – | – | – | 30 to 44% | 95 to 100% | 28 g ai/ha | 57 g ai/ha | 15 g ai/ha | 31 g ai/ha | 95 to 100% | 85 to 94% | 95 to 100% | 85 to 94% |
| COC(=O)c1nc(-c2ccc(C(F)(F)F)nc2)c(F)c(N)c1Cl [Compound 59, methyl 4-amino-5-chloro-3-fluoro-6′-(trifluoromethyl)-[2,3′-bipyridine]-6-carboxylate] | – | – | – | – | – | – | 45 to 59% | 85 to 94% | 34 g ai/ha | 61 g ai/ha | >140 g ai/ha | >140 g ai/ha | 0 to 29% | 30 to 44% | – | – |
| Nc1c(Cl)c(C(=O)O)nc(-c2ccc(C(F)(F)F)nc2)c1Cl [Compound 33] | – | – | – | – | – | – | 45 to 59% | 60 to 74% | 48 g ai/ha | >140 g ai/ha | >140 g ai/ha | >140 g ai/ha | 0 to 29% | 0 to 29% | 60 to 74% | 30 to 44% |
| COC(=O)c1nc(-c2ccc(Cl)c(F)c2OC)cc(N)c1Cl [Compound 20] | – | – | – | – | – | – | 0 to 29% | 60 to 74% | 80 g ai/ha | >140 g ai/ha | >140 g ai/ha | >140 g ai/ha | 0 to 29% | 0 to 29% | 60 to 74% | 30 to 44% |
| Cc1c(-c2ccc(C(F)(F)F)nc2)nc(C(=O)O)c(Cl)c1N [Compound 51, 4-amino-5-chloro-3-methyl-6′-(trifluoromethyl)-[2,3′-bipyridine]-6-carboxylic acid] | – | – | – | – | – | – | 75 to 84% | 85 to 94% | 26 g ai/ha | 47 g ai/ha | – | – | 0 to 29% | 0 to 29% | – | – |
